Data reported in patent publication US6875758B2, “Method of treating hyperlipidemic and hyperglycemic conditions in mammals using pregnadienols and pregnadienones” (Council of Scientific & Industrial Research, priority 1999, dated 2005).

What was measured:
Triton treated rats = assay: Cholesterol lowering in Triton treated rats; type: in vivo, Charles Foster rats
Excerpt: The primary hypolipidemic effect of these compounds was established in triton induced hyperlipidemia in Charles Foster rats. […] The cholesterol lowering effect of some representative compounds of pregrenadienols and pregrenadienones as compared to clofibrate and gugulsterone in triton treated Charles Foster rats is described in Table-2.

[1] = system: cholesterol fed hyperlipidemic rats; assay: Lipid peroxidation in cholesterol fed hyperlipidemic rats; type: in vivo
Human serum LDL = assay: Cu2+ induced oxidation of low density lipoprotein (TBA reactive lipid peroxides); type: biochemical; settings: for MDA (Exp.): 16 hr at 37° C., pH 7.4; for generation of LDL lipid peroxide (in words): tested concentrations
Protocol: Human serum LDL was oxidized with Cu^′2 in different concentrations of test compound in 0.05 mole PBS, pH 7.4 for 16 hr at 37° C. Thiobarbituric acid reactive lipid peroxides are measured by standard procedure. […] Cu^′2 induced oxidation in LDL lipids are mainly due to the free OH radical during incubation.

[2] = Hydroxy (OH) radical formation in nonenzymatic system (Fe2+, ascorbate, H2O2, deoxyribose); type: biochemical
[3] = system: isoproterneol induced myocardial necrosis in rat; assay: Isoproterneol induced myocardial necrosis in rats; type: in vivo; settings: isoproterneol 85 mg/kg + drug 25 mg/kg p.o.
Excerpt: The underlying cause of myocardial infarction is believed to be the progressive deposition of lipids and fibrotic material into the arterial wall. These pregnadienols and pregnadienous also provided cardiac protection as assessed in isoproterneol induced myocardial necrosis in rat model, which produces myocardial infarction due to an increased blood pressure and heart rate.

glucose loaded rats = assay: Hypoglycemic activity in glucose loaded rats; type: in vivo, albino rats (Charles Foster strain); settings: for Blood Glucose Level: 100 mg/kg p.o. + glucose 2.0 g/kg; for % inhibition compared to control (blood glucose): 100 mg/kg
Protocol: The experiments were carried out with albino rats (Charles Foster strain) of either sex weighing 150-160 g. They were fed on laboratory diet prepared by M/s Lipton India Ltd. and maintained under 12 hr. light/dark cycle at 25±2° C.
The animals were divided into eight groups, each of six rats; group I was given 1% gum acacia (0.1 ml/100 g body weight) intragastrically (p.o.) and the group II were given 3β-hydroxypregna-5,16-dien-20-one (2) in 1% gum acacia. Animals of group III were given the standard antidiabetic drug, tolbutamide in the similar fashion. 2.0 g/kg glucose was given p.o. to all the rats along with the vehicle/Compound/Standard antidiabetic drug. Blood samples were taken from retroorbital plexus at periodic intervals. Glucose levels in the blood samples were measured by glucose oxidase method [Bergmeyer and Benut, 1963 cited in “Methods of Enzymatic Analysis” ed. H. Bergmeyer, Verlag Chemie, GmBH, Weinheim, Beroster, pp123, Academic press, New York].

[4] = system: streptozotocin induced diabetic rats; assay: Hypoglycemic activity in streptozotocin induced hyperglycemic rats; type: in vivo; settings: 100 mg/kg p.o.
Protocol: Hyperglycemia in rats was produced by streptozotocin treatment. The animals showing blood glucose levels between 250-350 mg/dl were selected. Blood samples were collected after treatment at intervals and blood glucose levels were estimated immediately.

normal rats = assay: Hypolipidemic activity in normal rats; type: in vivo; settings: 50 mg/kg
Protocol: In normal rats, 3β-hydroxypregna-5,16-dien-20one (2), at 50 mg/kg produced a significant lowering of serum cholesterol and triglycerides as describe in Table-3 below.

[5] = Rattus norvegicus, ip, 50 mg/kg i.p., read-out: % Change S. Chol.

SMILES: CC(=O)C1=CCC2C3CCC4=CC(=O)CC[C@]4(C)C3CC[C@]12C (stereo partly drawn) [Compound 3, 4,16-Dienpregna-3,20-dione]
- change in vivo at 50 mg/kg (Triton treated rats; [5]): -13%

SMILES: CC(O)C1=CCC2C3CC=C4CC(O)CC[C@]4(C)C3CC[C@]12C (stereo partly drawn) [Compound 6, 5,16-Dien-pregnane-3,20-diol]
- change in vivo at 50 mg/kg (Triton treated rats; [5]): -10%

SMILES: C/C=C1/C(=O)CC2C3CCC4=CC(=O)CC[C@]4(C)C3CC[C@]12C (stereo partly drawn) [Compound 9, Gugulsterone, reference compound]
- change in vivo at 50 mg/kg (Triton treated rats; [5]): -44%

SMILES: Cc1ccc(C)c(OCCCC(C)(C)C(=O)O)c1 [Gemfibrozil, reference compound]
- HDL lipid peroxides ([1]; cholesterol + drug 25 mg/kg): 134 ± 13 n mol MDA/dl
- HDL lipid peroxides % reversal as compared with cholesterol fed rats ([1]; cholesterol + drug 25 mg/kg): (−3) %
- LDL lipid peroxides ([1]; cholesterol + drug 25 mg/kg): 568 ± 62 n mol MDA/dl
- LDL lipid peroxides % reversal as compared with cholesterol fed rats ([1]; cholesterol + drug 25 mg/kg): (−6) %
- Liver lipid peroxides ([1]; cholesterol + drug 25 mg/kg): 253 ± 26 n mol MDA/g
- Liver lipid peroxides % reversal as compared with cholesterol fed rats ([1]; cholesterol + drug 25 mg/kg): (−8) %
- Serum lipid peroxides ([1]; cholesterol + drug 25 mg/kg): 1161 ± 74 n mol MDA/dl
- Serum lipid peroxides % reversal as compared with cholesterol fed rats ([1]; cholesterol + drug 25 mg/kg): (−5) %
- VLDL lipid peroxides ([1]; cholesterol + drug 25 mg/kg): 346 ± 10 n mol MDA/dl
- VLDL lipid peroxides % reversal as compared with cholesterol fed rats ([1]; cholesterol + drug 25 mg/kg): (−9) %
- lipid peroxide levels in serum VLDL, LDL and liver (in words) ([1]; cholesterol fed animals, simultaneous treatment): failed to protect
- MDA (Exp.) (Human serum LDL; 2.5 μmol/ml): 53.0 ± 6.0 n mol MDA/mg protein
- % inhibition of LDL oxidation (Human serum LDL; 5.0 μmol/ml): (5) %
- MDA (Exp.) (Human serum LDL; 5.0 μmol/ml): 48.8 ± 6.7 n mol MDA/mg protein
- MDA (Exp.) (Human serum LDL; 10.0 μmol/ml): 43.8 ± 4.9 n mol MDA/mg protein
- % inhibition of LDL oxidation (Human serum LDL; 20 μmol/ml): (16) %
- MDA (Exp.) (Human serum LDL; 20 μmol/ml): 41.4 ± 5.0 n mol MDA/mg protein
- generation of LDL lipid peroxide (in words) (Human serum LDL): did not inhibit
- % inhibition of OH radical formation ([2]; 5 μmol/ml): (4) %
- OH radical formation ([2]; 5 μmol/ml): 79.9 ± 6.8 nmol MDA/hr
- % inhibition of OH radical formation ([2]; 10 μmol/ml): (5) %
- OH radical formation ([2]; 10 μmol/ml): 78.5 ± 8.0 nmol MDA/hr
- % inhibition of OH radical formation ([2]; 20 μmol/ml): (8) %
- OH radical formation ([2]; 20 μmol/ml): 76.8 ± 7.4 nmol MDA/hr
- % inhibition of OH radical formation ([2]; 30 μmol/ml): (8) %
- OH radical formation ([2]; 30 μmol/ml): 76.4 ± 3.8 nmol MDA/hr
- % inhibition of OH radical formation ([2]; 40 μmol/ml): (11) %
- OH radical formation ([2]; 40 μmol/ml): 74.3 ± 6.3 nmol MDA/hr
- % inhibition of OH radical formation ([2]; 50 μmol/ml): (13) %
- OH radical formation ([2]; 50 μmol/ml): 72.4 ± 8.0 nmol MDA/hr
- Heart Ca. - ATPase % Protection [3]: 30.2%
- Heart Glycogen % Protection [3]: 32.1%
- Heart Lipid peroxide % Protection [3]: 69.8%
- Heart Phospholipase % Protection [3]: 28.2%
- Serum Alkaline Phosphatase % Protection [3]: 41.2%
- Serum CPK % Protection [3]: 33.9%
- Serum GOT % Protection [3]: 24.9%
- Serum GPT % Protection [3]: 33.4%

SMILES: C/C=C1/C(O)CC2C3CC=C4CC(O)CC[C@]4(C)C3CC[C@]12C (stereo partly drawn) [Compound 8, 5,17(20)-Dienpregna-3,16-diol]
- change in vivo at 50 mg/kg (Triton treated rats; [5]): -31%

SMILES: CC(=O)O[C@H]1CC[C@@]2(C)C(=CC[C@@H]3[C@@H]2CC[C@]2(C)C(C(C)=O)=CC[C@@H]32)C1 [Compound 1, 3β-Acetoxypregna-5,16-dien-20-one]
- change in vivo at 50 mg/kg (Triton treated rats; [5]): -43%

SMILES: Cc1c(C)c2c(c(C)c1O)CC[C@@](C)(CCC[C@H](C)CCC[C@H](C)CCCC(C)C)O2 [α-Tocopherol]
- % inhibition of LDL oxidation (Human serum LDL; 0.25 μmol/ml): (3) %
- MDA (Exp.) (Human serum LDL; 0.25 μmol/ml): 44.7 ± 4.5 n mol MDA/mg protein
- % inhibition of LDL oxidation (Human serum LDL; 0.5 μmol/ml): (13) %
- MDA (Exp.) (Human serum LDL; 0.5 μmol/ml): 41.6 ± 4.0 n mol MDA/mg protein
- MDA (Exp.) (Human serum LDL; 1.0 μmol/ml): 35.0 ± 3.8 n mol MDA/mg protein
- % inhibition of LDL oxidation (Human serum LDL; 2.0 μmol/ml): (51) %
- MDA (Exp.) (Human serum LDL; 2.0 μmol/ml): 24.3 ± 2.0 n mol MDA/mg protein
- generation of LDL lipid peroxide (in words) (Human serum LDL): inhibit the generation of LDL lipid peroxide in concentration dependent manner
- % inhibition of OH radical formation ([2]; 1 μmol/ml): (23) %
- OH radical formation ([2]; 1 μmol/ml): 60.4 ± 7.0 nmol MDA/hr
- % inhibition of OH radical formation ([2]; 2 μmol/ml): (42) %
- OH radical formation ([2]; 2 μmol/ml): 45.2 ± 3.3 nmol MDA/hr
- % inhibition of OH radical formation ([2]; 3 μmol/ml): (59) %
- OH radical formation ([2]; 3 μmol/ml): 32.4 ± 3.5 nmol MDA/hr
- % inhibition of OH radical formation ([2]; 4 μmol/ml): (65) %
- OH radical formation ([2]; 4 μmol/ml): 27.1 ± 2.8 nmol MDA/hr
- % inhibition of OH radical formation ([2]; 5 μmol/ml): (73) %
- OH radical formation ([2]; 5 μmol/ml): 20.9 ± 2.0 nmol MDA/hr

SMILES: CCCCNC(=O)NS(=O)(=O)c1ccc(C)cc1 [Tolbutamide, reference compound]
- Maximum Blood Glucose Change (glucose loaded rats; 100 mg/kg p.o. + glucose): −41.7%
- Blood Glucose Level (glucose loaded rats; 0 min): 38.15 ± 2.02 mg/dL
- Blood Glucose Level (glucose loaded rats; 30 min): 76.31 ± 6.29 mg/dL
- Blood Glucose Level (glucose loaded rats; 60 min): 27.26 ± 3.1 mg/dL
- Blood Glucose Level (glucose loaded rats; 90 min): 24.64 ± 1.92 mg/dL
- Blood Glucose Level (glucose loaded rats; 120 min): 23.07 ± 3.11 mg/dL
- % inhibition compared to control (blood glucose) (glucose loaded rats; 30 min): (35) %
- % inhibition compared to control (blood glucose) (glucose loaded rats; 60 min): (100) %
- % inhibition compared to control (blood glucose) (glucose loaded rats; 90 min): (100) %
- % inhibition compared to control (blood glucose) (glucose loaded rats; 120 min): (100) %
- Blood Glucose Level ([4]; 0 hr): 292 ± 10 mg/dL
- % lowering from zero hour value (blood glucose) ([4]; 1 hr): (25.3) %
- % lowering from zero hour value (blood glucose) ([4]; 2 hr): (29.1) %
- % lowering from zero hour value (blood glucose) ([4]; 3 hr): (30.8) %
- % lowering from zero hour value (blood glucose) ([4]; 4 hr): (33.2) %
- % lowering from zero hour value (blood glucose) ([4]; 5 hr): (37.3) %
- % lowering from zero hour value (blood glucose) ([4]; 6 hr): (40.4) %
- % lowering from zero hour value (blood glucose) ([4]; 7 hr): (34.2) %
- % lowering from zero hour value (blood glucose) ([4]; 8 hr): (17.1) %
- Blood Glucose Level ([4]; 24 hr): 332 ± 26 mg/dL

SMILES: CCOC(=O)C(C)(C)Oc1ccc(Cl)cc1 [Compound 10, Clofibrate, reference compound]
- change in vivo at 200 mg/kg (Triton treated rats; Rattus norvegicus, ip, 200 mg/kg i.p., read-out: % Change S. Chol.): -15%
- Serum Cholesterol (normal rats; 0 Days): 82.3 ± 3.3 mg %
- Serum Cholesterol (normal rats; 30 Days): 53.2 ± 2.0 mg %
- Serum Cholesterol % Fall (normal rats; 30 Days): 36%
- Serum Triglycerides (normal rats; 30 Days): 47.3 ± 3.2 mg %
- Serum Triglycerides % Fall compared to control (normal rats; 30 Days): 28%

SMILES: CC=C1C(OC(C)=O)C[C@H]2[C@@H]3CC=C4CC(OC(C)=O)CC[C@]4(C)[C@H]3CC[C@]12C (stereo partly drawn) [Compound 7, 5,17(20)-Dienpregna-3,16-diol-diacetate]
- % Change S. Chol. (Triton treated rats; 50 mg/kg i.p.): −33%

SMILES: CC(=O)O[C@H]1CC[C@@]2(C)C(=CC[C@H]3[C@@H]4CC[C@H](C(C)=O)[C@@]4(C)CC[C@@H]32)C1 [Compound 4, 3β-Aceoxypregna-5-en-20-one]
- % Change S. Chol. (Triton treated rats; 100 mg/kg i.p.): −12%

SMILES: CC(=O)[C@H]1CC[C@H]2[C@@H]3CC=C4C[C@@H](O)CC[C@]4(C)[C@H]3CC[C@]12C [Compound 5, 3β-Hydroxypregna-5-en-20-one]
- change in vivo at 100 mg/kg (Triton treated rats; Rattus norvegicus, ip, 100 mg/kg i.p., read-out: % Change S. Chol.): -9%
